This is an account of results in patent US10407414B2, “Mannose derivatives for treating bacterial infections” (priority 2015, dated 2019).

This test concerns bacterial strain LF82 binding to the glycoprotein BSA-(Mannose)3 (FimH antagonists). In words: Bacterial Binding Assay (BBA). In kind it is cell-based, Escherichia coli. The note with it: read-out: Bacterial Binding Assay IC50 ± SEM. From the text: The purpose of the Bacterial Binding Assay (BBA) is to determine the inhibition activity of selective FimH antagonists on the bacterial strain LF82 binding to the glycoprotein BSA-(Mannose)3.
Below is a list of the Materials used to run the BBA are described below. • 1. LB broth: Supplier: Gibco, #10855 • 2. D-PBS: Supplier: Wisent, #311-425-CL • 3. LB agar plates • 4. 96-well black plate (high binding): Supplier: Costar, #3925 • 5. TopSeal™-A adhesive sealing films; Supplier PerkinElmer, #6005185 • 6. Carbonate-bicarbonate buffer pH 9.6 tablets, Supplier: Medicago, #09-8922-24 • 7. Water, Supplier: Gibco, #15230-162 • 8. Bovine serum albumin (BSA): Supplier: Sigma, #A-7888 • 9. (Man)3-BSA (α1-3, α1-6 Mannotriose-BSA, 1 mg), V-Labs, #NGP1336, lot# HGDX37-169-1 • 10. Tween 20: Supplier: Sigma, #P9416 • 11. Bright-Glo Luciferase Assay System: Supplier: Promega, #E2610 • 12. LF82/Luciferase strain: Invasive ability of an Escherichia coli strain isolated from the ileal mucosa of a patient with Crohn's disease. Boudeau J, Glasser A L, Masseret E, Joly B, Darfeuille-Michaud A, Infect Immun. 1999, 67(9), 4499-509
Solutions and buffers used to run the BBA are described below. • 1. 0.04M carbonate-bicarbonate buffer (coating buffer) • 2. 40 μg/mL BSA-(Man)3: Dissolve 1 mg of (Man)3-BSA in 25 mL of water. • 3. 4000 μg/mL BSA • 4. 40 μg/mL BSA • 5. 1 μg/mL BSA-(Man)3: 150 μL of 40 μg/mL BSA-(Man)3+5.85 mL of 40 μg/mL BSA • 6. 0.5 μg/mL BSA-(Man)3 in 0.02M carbonate-bicarbonate buffer. • 7. 20 μg/mL BSA in 0.02M carbonate-bicarbonate buffer • 8. Blocking buffer (2% BSA/DPBS): 1 g of BSA in 50 mL D-PBS • 9. 2× binding buffer (0.2% BSA/D-PBS): 5 mL of blocking buffer+45 mL D-PBS. • 10. Washing buffer (D-PBS/0.01% Tween 20): 10 μL of Tween 20 in 100 mL D-PBS. • 11. 1× Bright-Glo Luciferase substrate: Dilute 1:1 the Bright-Glo Luciferase Assay System with D-PBS
The experimental protocol used in this example to run the BBA is described below.
Overnight culture of LF82/Luciferase strain: Into two Falcon 50 mL tubes, add 20 mL of LB+20 μL of 50 mg/mL Kanamycin and inoculate with a loop from glycerol stock of the LF82/Luciferase strain. Incubate overnight at 37° C. with no shaking.
Glycoprotein coating of 96-well plates: Add 100 μL/well of 0.5-2 μg/mL BSA-(Man)3. 20 μg/mL BSA is used as the control background. Seal plate using an adhesive sealing film and incubate overnight at room temperature. Wash the 96-well plate three times with 150 μL/well of D-PBS, add 170 μL/well of blocking solution and incubate 45 min (minimum) at room temperature.
Preparation of bacterial suspension: Mix the two cultures tubes (40 mL) and perform a 1:10 dilution in LB (900 μl LB+100 μl culture. Measure optical density (OD) of the bacterial cultures. OD1 ˜5×10^8 cells/mL. Centrifuge LF82 culture for 20 min at 3500 rpm at room temperature. Re-suspend bacterial pellet in D-PBS and centrifuge again for 20 min at 3500 rpm. Re-suspend bacterial pellet in D-PBS to obtain a bacterial concentration of 2×10^9 bacteria/mL. Dilute 1/10 in D-PBS to obtain a final bacterial concentration of 2×10^8 bacteria/mL (=107 bacteria/50 μL). Perform 1/10 serial dilutions in LB of each bacterial suspension, plate 10 μL of dilutions on LB agar plates (final dilutions of 10^−7) and incubate overnight at 37° C. and count CFUs to determine the actual bacteria density in the assay.
Bacterial binding assay: Add 147 μL 2× binding buffer to compound plate (containing 3 μL of compound). After blocking step is performed (at least 45 min), wash plates three times with 200 μL/well of D-PBS. With a 100 μL multichannel manual pipettor, add 50 μL/well of compound diluted in 2× binding buffer. With a 100 μL multichannel manual pipettor, add 50 μL/well of bacterial suspension. Agitate at slow speed for 1 min and incubate 40-75 min at room temperature. Wash 5 times with 150 μL/well of washing buffer and then once with D-PBS. Add 100 μL/well of 1× Bright-Glo Luciferase substrate. […]
As a reminder, the IC50 is the concentration at which inhibition is half-maximal. Take `Cc1cc(C#C[C@H]2O[C@H](CO)[C@@H](O)[C@H](O)[C@@H]2O)c2cn[nH]c2c1` [Compound 7, (2R,3S,4R,5S,6R)-2-(hydroxymethyl)-6-[2-(6-methyl-1H-indazol-4-yl)ethynyl]tetrahydropyran-3,4,5-triol]: the IC50 was 76 ± 26 nM.

On to `Cc1cc(=O)n(C)cc1-c1cc(C#C[C@H]2O[C@H](CO)[C@@H](O)[C@H](O)[C@@H]2O)c2[nH]ncc2c1` [Compound 76, 1,4-dimethyl-5-[7-[2-[(2R,3S,4R,5S,6R)-3,4,5-trihydroxy-6-(hydroxymethyl)tetrahydropyran-2-yl]ethynyl]-1H-indazol-5-yl]pyridin-2-one], for which the IC50 worked out at 0.3 ± 0.09 nM.

On to `Cc1cc(-c2cc(C#C[C@H]3O[C@H](CO)[C@@H](O)[C@H](O)[C@@H]3O)c3[nH]ncc3c2)c[nH]c1=O` [Compound 79, 3-methyl-5-[7-[2-[(2R,3S,4R,5S,6R)-3,4,5-trihydroxy-6-(hydroxymethyl)tetrahydropyran-2-yl]ethynyl]-1H-indazol-5-yl]-1H-pyridin-2-one], for which the IC50 was determined as 0.4 ± 0.1 nM.

Regarding `O=c1[nH]c2cc(Cl)cc(C#C[C@H]3O[C@H](CO)[C@@H](O)[C@H](O)[C@@H]3O)c2[nH]1` [Compound 12, 6-chloro-4-[2-[(2R,3S,4R,5S,6R)-3,4,5-trihydroxy-6-(hydroxymethyl)tetrahydropyran-2-yl]ethynyl]-1,3-dihydrobenzimidazol-2-one], the 50% inhibitory concentration (IC50) turned out to be 16 ± 6 nM.

On to `CCCCc1cc(C#C[C@H]2O[C@H](CO)[C@@H](O)[C@H](O)[C@@H]2O)c2nn(C)cc2c1` [Compound 23, (2R,3S,4R,5S,6R)-2-[2-(5-butyl-2-methyl-indazol-7-yl)ethynyl]-6-(hydroxymethyl)tetrahydropyran-3,4,5-triol], for which the IC50 was 9 nM.

Turning to `CN(C(=O)c1cc(C#C[C@H]2O[C@H](CO)[C@@H](O)[C@H](O)[C@@H]2O)c2[nH]ncc2c1)C1CCCCC1` [Compound 60, N-cyclohexyl-N-methyl-7-[2-[(2R,3S,4R,5S,6R)-3,4,5-trihydroxy-6-(hydroxymethyl)tetrahydropyran-2-yl]ethynyl]-1H-indazole-5-carboxamide], the IC50 turned out to be 3 ± 2 nM.

Regarding `O=S1(=O)CCN(CC#Cc2cc(C#C[C@H]3O[C@H](CO)[C@@H](O)[C@H](O)[C@@H]3O)c3[nH]ncc3c2)CC1` [Compound 49, (2R,3S,4R,5S,6R)-2-[2-[5-[3-(1,1-dioxo-1,4-thiazinan-4-yl)prop-1-ynyl]-1H-indazol-7-yl]ethynyl]-6-(hydroxymethyl)tetrahydropyran-3,4,5-triol], the 50% inhibitory concentration (IC50) stood at 26 ± 0.5 nM.

As to `CCc1ccc(/C=C/c2cc(C#C[C@H]3O[C@H](CO)[C@@H](O)[C@H](O)[C@@H]3O)c3[nH]ncc3c2)cc1` [Compound 69, (2R,3S,4R,5S,6R)-2-[2-[5-[(E)-2-(4-ethylphenyl)vinyl]-1H-indazol-7-yl]ethynyl]-6-(hydroxymethyl)tetrahydropyran-3,4,5-triol], the IC50 was 13 ± 9 nM.

For the molecule `OC[C@H]1O[C@H](C#Cc2cc(-c3ccc(F)cc3F)cc3cn[nH]c23)[C@@H](O)[C@@H](O)[C@@H]1O` [Compound 81, (2R,3S,4R,5S,6R)-2-[2-[5-(2,4-difluorophenyl)-1H-indazol-7-yl]ethynyl]-6-(hydroxymethyl)tetrahydropyran-3,4,5-triol], the IC50 came to 0.4 ± 0.2 nM.

In the case of `CCCCn1ncc2c(C#C[C@H]3O[C@H](CO)[C@@H](O)[C@H](O)[C@@H]3O)cccc21` [Compound 21, (2R,3S,4R,5S,6R)-2-[2-(1-butylindazol-4-yl)ethynyl]-6-(hydroxymethyl)tetrahydropyran-3,4,5-triol], the IC50 came out at 22 ± 0.5 nM.

For the molecule `OC[C@H]1O[C@H](C#Cc2cc(-c3cccnc3)cc3cn[nH]c23)[C@@H](O)[C@@H](O)[C@@H]1O` [Compound 27, (2R,3S,4R,5S,6R)-2-(hydroxymethyl)-6-[2-[5-(3-pyridyl)-1H-indazol-7-yl]ethynyl]tetrahydropyran-3,4,5-triol], the IC50 came out at 0.2 ± 0.03 nM.

In the case of `OC[C@H]1O[C@H](C#Cc2cccc3ncoc23)[C@@H](O)[C@@H](O)[C@@H]1O` [Compound 10, (2R,3S,4R,5S,6R)-2-[2-(1,3-benzoxazol-7-yl)ethynyl]-6-(hydroxymethyl)tetrahydropyran-3,4,5-triol], the 50% inhibitory concentration (IC50) was found to be 217 ± 133 nM.

Take `Cc1ccccc1-c1cc(C#C[C@H]2O[C@H](CO)[C@@H](O)[C@H](O)[C@@H]2O)c2[nH]ncc2c1` [Compound 26]: the IC50 turned out to be 0.7 ± 0.3 nM.

Consider `COc1cccc(-c2cc(C#C[C@H]3O[C@H](CO)[C@@H](O)[C@H](O)[C@@H]3O)c3[nH]ncc3c2)c1` [Compound 38, (2R,3S,4R,5S,6R)-2-(hydroxymethyl)-6-[2-[5-(3-methoxyphenyl)-1H-indazol-7-yl]ethynyl]tetrahydropyran-3,4,5-triol], for which the IC50 came out at 0.8 ± 0.5 nM.

On to `CNC(=O)c1cncc(-c2cc(C#C[C@H]3O[C@H](CO)[C@@H](O)[C@H](O)[C@@H]3O)c3[nH]ncc3c2)c1` [Compound 42, N-methyl-5-[7-[2-[(2R,3S,4R,5S,6R)-3,4,5-trihydroxy-6-(hydroxymethyl)tetrahydropyran-2-yl]ethynyl]-1H-indazol-5-yl]pyridine-3-carboxamide], for which the IC50 stood at 0.6 ± 0.2 nM.

`OC[C@H]1O[C@H](C#Cc2cc(C#Cc3cccc(O)c3)cc3cn[nH]c23)[C@@H](O)[C@@H](O)[C@@H]1O` [Compound 47, (2R,3S,4R,5S,6R)-2-(hydroxymethyl)-6-[2-[5-[2-(3-hydroxyphenyl)ethynyl]-1H-indazol-7-yl]ethynyl]tetrahydropyran-3,4,5-triol]: the IC50 worked out at 12 ± 6 nM.

With `CCN(CC)S(=O)(=O)c1ccc(C)c(-c2cc(C#C[C@H]3O[C@H](CO)[C@@H](O)[C@H](O)[C@@H]3O)c3[nH]ncc3c2)c1` [Compound 93, N,N-diethyl-4-methyl-3-[7-[2-[(2R,3S,4R,5S,6R)-3,4,5-trihydroxy-6-(hydroxymethyl)tetrahydropyran-2-yl]ethynyl]-1H-indazol-5-yl]benzenesulfonamide], the IC50 came out at 1 nM.

With `CN(C)C(=O)c1cc(C#C[C@H]2O[C@H](CO)[C@@H](O)[C@H](O)[C@@H]2O)c2[nH]ncc2c1` [Compound 59, N,N-dimethyl-7-[2-[(2R,3S,4R,5S,6R)-3,4,5-trihydroxy-6-(hydroxymethyl)tetrahydropyran-2-yl]ethynyl]-1H-indazole-5-carboxamide], the half-maximal inhibitory concentration (IC50) came out at 0.4 ± 0.2 nM.

Take `CC(C)(C)OC(=O)n1ccc(-c2cc(C#C[C@H]3O[C@H](CO)[C@@H](O)[C@H](O)[C@@H]3O)c3[nH]ncc3c2)c1` [Compound 72, tert-butyl 3-[7-[2-[(2R,3S,4R,5S,6R)-3,4,5-trihydroxy-6-(hydroxymethyl)tetrahydropyran-2-yl]ethynyl]-1H-indazol-5-yl]pyrrole-1-carboxylate]: the half-maximal inhibitory concentration (IC50) came to 7 ± 4 nM.

Turning to `O=C(NC1CCCC1)c1cc(C#C[C@H]2O[C@H](CO)[C@@H](O)[C@H](O)[C@@H]2O)c2[nH]ncc2c1` [Compound 64, N-cyclopentyl-7-[2-[(2R,3S,4R,5S,6R)-3,4,5-trihydroxy-6-(hydroxymethyl)tetrahydropyran-2-yl]ethynyl]-1H-indazole-5-carboxamide], the IC50 is 50 ± 7 nM.
